Laboratory results reported in US5886178A, “3-aroylbenzylpyridazinone derivatives” (Syntex (U.S.A.) Inc., priority 1997, dated 1999).

Experiments:
[1] = tested on: prostaglandin E2 synthesis; experiment: Inhibition of eicosanoid (PGE2) synthesis in vivo, carrageenan air-pouch model in rats; design: species or system rat; settings: oral, male rats
Procedure: In this assay, an air-pouch is created in the rat and the PGE2 levels in the air-pouch exudate are measured by enzyme immunoassay. Briefly, male rats were anesthetized using a 60:40 CO2 :O2 mixture and subsequently injected subcutaneously with 20 ml of sterilized air, under aseptic conditions, in the proximal area of the dorsum. This injection of sterile air causes the creation of a subcutaneous "air pouch". The next day, a further 10 ml of sterile air was injected into the previously formed pouch using the same technique. […] Control rats received vehicle alone. After 30 minutes, 5 ml of a 0.5% solution of carrageenan (Sigma, Lambda Type IV) was injected into the air pouch. The rats were euthanized 3 hr after the compound administration. […] The total exudate volume was recorded, and the samples were analyzed for PGE2 and 6-keto PGF1 by ELISA (Titerzyme®, PerSeptive Diagnostics) and TxB2 by radioimmuno assay (New England Nuclear Research, Catalog No. NEK-037), according to the manufacturer's directions.
The mean concentrations of PGE2 were calculated for each group. The anti-inflammatory activity of test materials is expressed as the percent inhibition of PGE2 formation in the test group relative to the control group.

COX I [2] = target: T1, COX I (Homo sapiens, UniProt P23219); experiment: Inhibition of COX I in a cell based assay (human promonocytic THP cells, TXB2 ELISA); design: endogenous in cells; host or cells: human promonocytic THP cells, PMA-treated
T1 sequence (P23219 24-599): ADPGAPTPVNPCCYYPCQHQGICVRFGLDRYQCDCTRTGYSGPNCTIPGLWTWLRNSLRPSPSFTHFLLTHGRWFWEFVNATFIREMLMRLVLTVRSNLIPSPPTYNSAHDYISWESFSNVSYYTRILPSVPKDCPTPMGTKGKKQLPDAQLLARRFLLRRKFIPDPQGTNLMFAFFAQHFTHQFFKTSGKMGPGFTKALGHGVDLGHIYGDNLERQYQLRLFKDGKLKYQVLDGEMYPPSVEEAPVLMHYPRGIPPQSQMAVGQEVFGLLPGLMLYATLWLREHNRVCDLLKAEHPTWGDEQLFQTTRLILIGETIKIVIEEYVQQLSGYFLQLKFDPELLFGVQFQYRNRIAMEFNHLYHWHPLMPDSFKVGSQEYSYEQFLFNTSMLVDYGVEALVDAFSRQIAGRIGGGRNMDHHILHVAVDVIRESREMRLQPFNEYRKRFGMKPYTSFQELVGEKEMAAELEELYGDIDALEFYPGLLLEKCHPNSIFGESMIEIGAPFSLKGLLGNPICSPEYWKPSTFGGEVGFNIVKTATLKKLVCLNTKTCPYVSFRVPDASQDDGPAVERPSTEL
Procedure: (§1) The COX I and COX II inhibitory activity of compounds of this invention in a cell based assay was determined as described below.
The inhibitory activity of the test compounds against cell associated COX-1 was measured using human promonocytic THP cells. Cells were plated in 96-well microtiter plates at a density of 8×10^4 cells/well in RPMI-1640 medium (Gibco). COX-1 activity was initiated by incubating the cells with 0.1μM phorbol 12-myristate 13-acetate (PMA, Sigma) in dimethyl sulfoxide (DMSO, Aldrich) at 37° C. After 40-48 hours, the medium was removed, and the cells were washed twice with phosphate buffered saline (PBS, Gibco). 225 μl/well of fresh medium containing desired concentrations of the test compounds in DMSO, or the carrier vehicles (control wells), was added and the cells incubated at 37° C. for 30 minutes; after which 5 μM calcium ionophore A23187 (Sigma) was added and the incubation was continued for an additional 10 minutes. The reaction was terminated by transferring the plates to ice. The culture supernatants were transferred and appropriately diluted and the amount of thromboxane B2 (TXB2) present in each supernatant was quantitated using an ELISA kit (Cayman Chemicals).
(§2) The COX I and COX II inhibitory activities in the cell based assay (expressed as IC50) of some compounds of the invention were: […]

COX II [3] = target: T2, COX II (Homo sapiens, UniProt P35354); experiment: Inhibition of COX II in a cell based assay (human foreskin fibroblasts, PGE2 ELISA); design: host or cells: primary human foreskin fibroblasts (HFF), induced with PMA and human interleukin-1; settings: human foreskin fibroblasts (HFF)
T2 sequence (P35354 18-604): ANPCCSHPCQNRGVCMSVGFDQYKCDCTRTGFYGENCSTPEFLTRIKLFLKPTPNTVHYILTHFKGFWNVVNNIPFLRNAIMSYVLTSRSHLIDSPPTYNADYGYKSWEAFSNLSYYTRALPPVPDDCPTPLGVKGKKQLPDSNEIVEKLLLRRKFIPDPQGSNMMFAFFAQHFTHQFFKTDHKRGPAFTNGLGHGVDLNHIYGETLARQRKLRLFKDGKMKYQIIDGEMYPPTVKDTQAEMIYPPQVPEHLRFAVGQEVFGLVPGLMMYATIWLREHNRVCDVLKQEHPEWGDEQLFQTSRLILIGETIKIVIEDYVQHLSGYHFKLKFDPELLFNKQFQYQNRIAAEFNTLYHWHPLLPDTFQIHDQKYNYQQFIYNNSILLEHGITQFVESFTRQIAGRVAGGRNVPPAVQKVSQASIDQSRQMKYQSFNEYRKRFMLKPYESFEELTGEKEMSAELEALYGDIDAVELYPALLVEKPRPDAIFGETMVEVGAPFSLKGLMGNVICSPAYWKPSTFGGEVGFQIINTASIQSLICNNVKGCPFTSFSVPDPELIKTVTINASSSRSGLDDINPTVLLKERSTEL
Procedure: as §1
The inhibitory activity of test compounds against cell associated COX-2 was measured using primary cultures of human foreskin fibroblasts (HFF). HFF cultures were obtained from ATCC, grown in DMEM medium (Gibco) and used between 13-30 passages. Cells were plated in 96-well microtiter plates at a density of 6-8×10^4 cells/well in DMEM containing 10% fetal calf serum (Sigma) and cultured at 37° C. until they became confluent. The medium was removed and the cells were washed once with PBS. COX-2 activity was induced by incubating the cells with fresh DMEM containing 0.1 μM phorbol 12-myristate 13-acetate (PMA, Sigma) and 1ng/ml of human interleukin-1 (Sigma) at 37° C. After 16 h the medium was removed and the cells were washed twice with phosphate buffered saline (PBS, Gibco). 200 μl/well of fresh medium containing desired concentrations of the test compounds in DMSO, or the carrier vehicle (control wells) was added and the cells incubated at 37° C. for 30 minutes; after which 5 μM calcium ionophore A23187 (Sigma) was added and the incubation was continued for an additional 10 minutes. The reaction was terminated by transferring the plates to ice. The culture supernatants were transferred and appropriately diluted, and the amount of prostaglandin E2 (PGE2) present in each supernatant was quantitated using an ELISA kit (Cayman Chemicals).
as §2

[4] = Carrageenan-induced paw edema in the rat (anti-inflammatory activity); type: in vivo; settings: 3 h, 30 mg/Kg, oral, female rats, read-out: % inhibition of increase in hind paw weight
Procedure: The anti-inflammatory activity of compounds of this invention was determined by measuring the inhibition of carrageenan-induced paw edema in the rat, using a modification of the method described in Winter C. k et al (1962) "Carrageenan-Induced Edema in Hind Paw of the Rat as an Assay for Anti-inflammatory Drugs". Proc. Soc. Exp. Biol. Med. 111: 544-547. This assay has been used as a primary in vivo screen for anti-inflammatory activity of most NSAIDs, and is considered predictive of human efficacy. Briefly, test materials were administered orally to female rats in a volume of 1 ml prepared as solutions or suspensions in an aqueous vehicle containing 0.9% NaCl, 0.5% sodium carboxymethyl-cellulose, 0.4% polysorbate 80, 0.9% benzyl alcohol and 97.3% distilled water. Control rats received vehicle alone. After 1 hr 0.05 ml of a 0.5% solution of Carrageenan (Type IV Lambda, Sigma Chemical Co.) in 0.9% saline was injected into the subplantar region of the right hind paw. Three hours later the rats were euthanized in a carbon dioxide atmosphere; hind paws were removed by severing at the tatso-crural joint; and the left and right paws were weighed. The increase in weight of the right paw over the left paw was obtained for each animal and the mean increases were calculated for each group. The anti-inflammatory activity of the test materials is expressed as the percent inhibition of the increase in hind paw weight of the test group relative to the vehicle-dosed control group.
The anti-inflammatory activities (expressed as % inhibition) of some of the compounds of the invention were: […]

COX II [5] = target: T2, COX II; experiment: Inhibition of COX II in vitro, partially purified enzyme, radiometric assay; type: biochemical; design: made in house; settings: 20 micromolar arachidonic acid
Procedure: (§3) The COX I and COX II inhibitory activity of compounds of this invention in vitro was determined using partially purified COX I and COX II enzymes, prepared as described in J. Barnett et al, Biochim. Biophys.
(§4) COX I and COX II samples were diluted with Tris-HCl buffer (50 mM Tris-HCl, pH 7.9) containing 2 mM EDTA and 10% glycerol and reconstituted by incubating first with 2 mM phenol for 5 minutes and then with 1 micromolar hematin for an additional 5 minutes. 125 μl of the reconstituted COX I or COX II enzyme were preincubated for 10 minutes at room temperature in a shaking water bath with the compounds of the invention dissolved in 2-15 μl of DMSO or the carrier vehicles (control samples). The enzyme reaction was initiated by adding 25 μl of 1-[14C]arachidonic acid (80,000-100,000 cpm/tube; 20 micromolar final concentration) and the reaction was allowed to continue for an additional 45 seconds. The reaction was terminated by adding 100 μl of 2N HCl and 750 μl water. An aliquot (950 μl) of the reaction mixture was loaded onto a 1 ml C18 Sep-Pak column (J. T. Baker, Phillipsburg, N.J.) which had been previously washed with 2-3 ml methanol and equilibrated with 5-6 ml distilled water. Oxygenated products were quantitatively eluted with 3 ml of acetonitrile/water/acetic acid (50:50:0.1, v/v) and the radioactivity in the eluate determined in a scintillation counter.

COX I [6] = target: T1, COX I; experiment: Inhibition of COX I in vitro, partially purified enzyme, radiometric assay; type: biochemical; design: made in house; settings: 20 micromolar arachidonic acid
Procedure: as §3, §4

Row | SMILES | % inhibition of air pouch PGE2 formation ([1]; 10 mg/Kg) [%] | IC50 (COX I [2]) [µM] | IC50 (COX II [3]) [µM] | inhibition in vivo at 30 mg/kg [4] [%] | IC50 (COX II [5]) [µM] | IC50 (COX I [6]) [µM] | % inhibition of air pouch PGE2 formation ([1]; 30 mg/Kg) [%]
1 | CSc1ccc(C(=O)c2cccc(Cc3ccc(=O)[nH]n3)c2Cl)cc1 [Cpd 5, 6-[3-(4-methylthio-benzoyl)-2-chlorobenzyl]-2H-pyridazin-3-one] | 32 | – | – | – | – | – | –
2 | CSc1ccc(C(=O)c2cccc(Cc3ccc(=O)[nH]n3)c2C)cc1 [Cpd 10, 6-[3-(4-methylthiobenzoyl)-2-methylbenzyl]-2H-pyridazin-3-one] | 24 | – | – | – | – | – | –
3 | COc1ccc(C(=O)c2c(Cl)cc(Cl)cc2Cl)cc1Cc1ccc(=O)[nH]n1 [Cpd 26, 6-[3-(2,4,6-trichlorobenzoyl)-6-methoxybenzyl]-2H-pyridazin-3-one] | – | 19 | 0.3 | 24 | 0.6 | 540 | –
4 | COc1ccc(C(=O)c2c(Cl)cc(C)cc2Cl)cc1Cc1ccc(=O)[nH]n1 [Cpd 28, 6-[3-(2,6-dichloro-4-methylbenzoyl)-6-methoxybenzyl]-2H-pyridazin-3-one] | – | – | 3.4 | 21 | 2 | 100 | –
5 | COc1ccc(C(=O)c2c(Cl)cc(Cl)cc2Cl)cc1Cc1ccc(=O)n(C)n1 [Cpd 31, 6-[3-(2,4,6-trichlorobenzoyl)-6-methoxybenzyl]-2-methyl-2H-pyridazin-3-one] | – | – | 4 | 38 | 1.3 | 1000 | –
6 | COc1ccc(C(=O)c2c(Br)cc(C)cc2Br)cc1Cc1ccc(=O)[nH]n1 [Cpd 39, 6-[3-(2,6-dibromo-4-methylbenzoyl)-6-methoxybenzyl]-2H-pyridazin-3-one] | – | 26 | 1 | 33 | 1 | 100 | –
7 | COc1ccc(C(=O)c2c(C)cc(C)cc2C)cc1Cc1ccc(=O)[nH]n1 [Cpd 44, 6-[3-(2,4,6-trimethylbenzoyl)-6-methoxybenzyl]-2H-pyridazin-3-one] | – | 16 | 1.2 | 19 | 1.3 | 100 | –
8 | Cc1ccc(C(=O)c2c(Cl)cc(Cl)cc2Cl)cc1Cc1ccc(=O)[nH]n1 [Cpd 61, 6-[3-(2,4,6-trichlorobenzoyl)-6-methylbenzyl]-2H-pyridazin-3-one] | – | – | 0.48 | – | 0.18 | 310 | –
9 | Cc1ccc(C(=O)c2c(Cl)cc(Cl)cc2Cl)cc1Cc1ccc(=O)n(C)n1 [Cpd 62, 6-[3-(2,4,6-trichlorobenzoyl)-6-methylbenzyl]-2-methyl-2H-pyridazin-3-one] | – | – | 0.3 | 33 | 0.18 | 300 | –
10 | O=C(c1ccc(Cl)c(Cc2ccc(=O)[nH]n2)c1)c1c(Cl)cc(Cl)cc1Cl [Cpd 73, 6-[3-(2,4,6-trichlorobenzoyl)-6-chlorobenzyl]-2H-pyridazin-3-one] | – | 21 | 0.2 | 33 | 0.16 | 423 | –
11 | O=C(c1ccc(F)c(Cc2ccc(=O)[nH]n2)c1)c1c(Cl)cc(Cl)cc1Cl [Cpd 77, 6-[3-(2,4,6-trichlorobenzoyl)-6-fluorobenzyl]-2H-pyridazin-3-one] | – | 17 | 0.03 | – | 0.14 | 300 | 53
12 | O=C(c1cccc(Cc2ccc(=O)[nH]n2)c1)c1c(Cl)cc(Cl)cc1Cl [Cpd 78, 6-[3-(2,4,6-trichlorobenzoyl)benzyl]-2H-pyridazin-3-one] | – | – | 0.3 | 22 | 2 | 740 | –
